Measurements: patent publication US6358885B1, “Substituted phenylheterocyclic herbicides” (Mississippi State University, priority 1992, dated 2002)

Experiments:
Assay in all cases: Test F preemergence/postemergence greenhouse plant response rating 0 to 100
winter barley = type: in vivo, Hordeum vulgare cv. ‘Igri’; settings: POSTEMERGENCE, 0 to 100 scale
Source text: (§1) Compounds evaluated in this test were formulated in a non-phytoxic solvent and applied to the soil surface before plant seedlings emerged (preemergence application) and to plants that were in the one-to-four leaf stage (postemergence application). A sandy loam soil was used for the preemergence test while a mixture of sandy loam soil and greenhouse potting mix in a 60:40 ratio was used for the postemergence test. Test compounds were applied within approximately one day after planting seeds for the preemergence test. Plantings of these crops and weed species were adjusted to produce plants of appropriate size for the postemergence test. All plant species were grown using normal greenhouse practices. Crop and weed species include winter barley (Hordeum vulgare cv. ‘Igri’), blackgrass (Alopecurus myosuroides), chickweed (Stellaria media), downy brome (Bromus tectorum), field violet (Viola arvensis), galium (Galium aparine), green foxtail (Setaria viridis), kochia (Kochia scoparia), lambsquarters (Chenopodium album), speedwell (Veronica persica), rape (Brassica napus), ryegrass (Lolium multiflorum), sugar beet (Beta vulgaris cv. ‘USl’), sunflower (Helianthus annuus cv. ‘Russian Giant’), spring wheat (Triticum aestivum cv. ‘ERA’), winter wheat (Triticum aestivum cv. ‘Talent’), wild buckwheat (Polygonum convolvulus), wild mustard (Sinapis arvensis), wild oat (Avena fatua), and wild radish (Raphanus raphanistrum). Blackgrass, galium and wild oat were treated at two growth stages. […] Treated plants and untreated controls were maintained in a greenhouse for approximately 21 to 28 days, after which all treated plants were compared to untreated controls and visually evaluated. […] A dash response (-) means no test result.

chickweed = type: in vivo, Stellaria media; settings: POSTEMERGENCE, 0 to 100 scale
Source text: as §1

downy brome = type: in vivo, Bromus tectorum; settings: POSTEMERGENCE, 0 to 100 scale
Source text: as §1

galium = type: in vivo, Galium aparine; settings: POSTEMERGENCE, 0 to 100 scale; for Galium (1) plant response rating: stage (1) two to three leaves; for Galium (2) plant response rating: stage (2) approximately four leaves or initial tillering
Source text: as §1

green foxtail = type: in vivo, Setaria viridis; settings: POSTEMERGENCE, 0 to 100 scale
Source text: as §1

kochia = type: in vivo, Kochia scoparia; settings: POSTEMERGENCE, 0 to 100 scale
Source text: as §1

lambsquarters = type: in vivo, Chenopodium album; settings: POSTEMERGENCE, 0 to 100 scale
Source text: as §1

speedwell = type: in vivo, Veronica persica; settings: POSTEMERGENCE, 0 to 100 scale
Source text: as §1

ryegrass = type: in vivo, Lolium multiflorum; settings: POSTEMERGENCE, 0 to 100 scale
Source text: as §1

sugar beet = type: in vivo, Beta vulgaris cv. ‘USl’; settings: POSTEMERGENCE, 0 to 100 scale
Source text: as §1

spring wheat = type: in vivo, Triticum aestivum cv. ‘ERA’; settings: POSTEMERGENCE, 0 to 100 scale
Source text: as §1

winter wheat = type: in vivo, Triticum aestivum cv. ‘Talent’; settings: POSTEMERGENCE, 0 to 100 scale
Source text: as §1

wild mustard = type: in vivo, Sinapis arvensis; settings: POSTEMERGENCE, 0 to 100 scale
Source text: as §1

wild oat = type: in vivo, Avena fatua; settings: POSTEMERGENCE, 0 to 100 scale; for Wild oat (1) plant response rating: stage (1) two to three leaves; for Wild oat (2) plant response rating: stage (2) approximately four leaves or initial tillering
Source text: as §1

wild radish = type: in vivo, Raphanus raphanistrum; settings: POSTEMERGENCE, 0 to 100 scale
Source text: as §1

SMILES: C#CC(C)Oc1cc(-c2nn3c(c2Cl)CCCC3)c(F)cc1Cl (centres unmarked) [Compound 36]
- Winter Barley plant response rating (winter barley; Rate 4 g/ha): 20
- Winter Barley plant response rating (winter barley; Rate 8 g/ha): 20
- Winter Barley plant response rating (winter barley; Rate 16 g/ha): 20
- Winter Barley plant response rating (winter barley; Rate 32 g/ha): 25
- Chickweed plant response rating (chickweed; Rate 4 g/ha): 50
- Chickweed plant response rating (chickweed; Rate 8 g/ha): 100
- Chickweed plant response rating (chickweed; Rate 16 g/ha): 100
- Chickweed plant response rating (chickweed; Rate 32 g/ha): 100
- Downy brome plant response rating (downy brome; Rate 4 g/ha): 0
- Downy brome plant response rating (downy brome; Rate 8 g/ha): 0
- Downy brome plant response rating (downy brome; Rate 16 g/ha): 0
- Downy brome plant response rating (downy brome; Rate 32 g/ha): 5
- Galium (1) plant response rating (galium; Rate 4 g/ha): 20
- Galium (2) plant response rating (galium; Rate 4 g/ha): 40
- Galium (1) plant response rating (galium; Rate 8 g/ha): 50
- Galium (2) plant response rating (galium; Rate 8 g/ha): 60
- Galium (1) plant response rating (galium; Rate 16 g/ha): 50
- Galium (2) plant response rating (galium; Rate 16 g/ha): 60
- Galium (1) plant response rating (galium; Rate 32 g/ha): 60
- Galium (2) plant response rating (galium; Rate 32 g/ha): 70
- Green foxtail plant response rating (green foxtail; Rate 4 g/ha): 0
- Green foxtail plant response rating (green foxtail; Rate 8 g/ha): 40
- Green foxtail plant response rating (green foxtail; Rate 16 g/ha): 50
- Green foxtail plant response rating (green foxtail; Rate 32 g/ha): 50
- Kochia plant response rating (kochia; Rate 4 g/ha): 20
- Kochia plant response rating (kochia; Rate 8 g/ha): 60
- Kochia plant response rating (kochia; Rate 16 g/ha): 60
- Kochia plant response rating (kochia; Rate 32 g/ha): 100
- Lambsquarters plant response rating (lambsquarters; Rate 4 g/ha): 50
- Lambsquarters plant response rating (lambsquarters; Rate 8 g/ha): 50
- Lambsquarters plant response rating (lambsquarters; Rate 16 g/ha): 60
- Lambsquarters plant response rating (lambsquarters; Rate 32 g/ha): 60
- Persn Speedwell plant response rating (speedwell; Rate 4 g/ha): 100
- Persn Speedwell plant response rating (speedwell; Rate 8 g/ha): 100
- Persn Speedwell plant response rating (speedwell; Rate 16 g/ha): 100
- Persn Speedwell plant response rating (speedwell; Rate 32 g/ha): 100
- Ryegrass plant response rating (ryegrass; Rate 4 g/ha): 0
- Ryegrass plant response rating (ryegrass; Rate 8 g/ha): 10
- Ryegrass plant response rating (ryegrass; Rate 16 g/ha): 20
- Ryegrass plant response rating (ryegrass; Rate 32 g/ha): 35
- Sugar beet plant response rating (sugar beet; Rate 4 g/ha): 100
- Sugar beet plant response rating (sugar beet; Rate 8 g/ha): 100
- Sugar beet plant response rating (sugar beet; Rate 16 g/ha): 100
- Sugar beet plant response rating (sugar beet; Rate 32 g/ha): 100
- Wheat (Spring) plant response rating (spring wheat; Rate 4 g/ha): 15
- Wheat (Spring) plant response rating (spring wheat; Rate 8 g/ha): 15
- Wheat (Spring) plant response rating (spring wheat; Rate 16 g/ha): 15
- Wheat (Spring) plant response rating (spring wheat; Rate 32 g/ha): 20
- Wheat (Winter) plant response rating (winter wheat; Rate 4 g/ha): 20
- Wheat (Winter) plant response rating (winter wheat; Rate 8 g/ha): 20
- Wheat (Winter) plant response rating (winter wheat; Rate 16 g/ha): 20
- Wheat (Winter) plant response rating (winter wheat; Rate 32 g/ha): 50
- Wild mustard plant response rating (wild mustard; Rate 4 g/ha): 100
- Wild mustard plant response rating (wild mustard; Rate 8 g/ha): 100
- Wild mustard plant response rating (wild mustard; Rate 16 g/ha): 100
- Wild mustard plant response rating (wild mustard; Rate 32 g/ha): 100
- Wild oat (1) plant response rating (wild oat; Rate 4 g/ha): 10
- Wild oat (2) plant response rating (wild oat; Rate 4 g/ha): 10
- Wild oat (1) plant response rating (wild oat; Rate 8 g/ha): 20
- Wild oat (2) plant response rating (wild oat; Rate 8 g/ha): 10
- Wild oat (1) plant response rating (wild oat; Rate 16 g/ha): 20
- Wild oat (2) plant response rating (wild oat; Rate 16 g/ha): 20
- Wild oat (1) plant response rating (wild oat; Rate 32 g/ha): 20
- Wild oat (2) plant response rating (wild oat; Rate 32 g/ha): 20
- Wild radish plant response rating (wild radish; Rate 4 g/ha): 100
- Wild radish plant response rating (wild radish; Rate 8 g/ha): 100
- Wild radish plant response rating (wild radish; Rate 16 g/ha): 100
- Wild radish plant response rating (wild radish; Rate 32 g/ha): 100
